Measured values from patent US8841462B2, “Bicyclic heterocycles as MEK kinase inhibitors” (priority 2008, dated 2014).

Tests used:
[1] = tested on: A375 human malignant melanoma; assay: Cell proliferation assay, A375; format: cell-based; conditions: A-375, A375, 72h exposure, CellTiter-Glo, read-out: EC50 in the cell proliferation assay, A375 cell line
Method: (§1) Compounds are tested in a cell proliferation assay using the following cell lines:
(§2) A375 human malignant melanoma (ATCC)
(§3) Both cell lines are maintained in DMEM/F12 (1:1) media (Gibco) supplemented with 10% FCS at 37° C. in a 5% CO2 humidified incubator.
(§4) Cells are seeded in 96-well plates at 2,000 cells/well and after 24 hours they are exposed to different concentrations of compounds in 0.83% DMSO. Cells are grown for a further 72h, and an equal volume of CellTiter-Glo reagent (Promega) is added to each well. This lyses the cells and generates a luminescent signal proportional to the amount of ATP released (and therefore proportional to the number of cells in the well) that can be detected using a multi-well luminometer.
(§5) The EC50 is defined as the concentration at which a given compound achieves 50% inhibition of control. IC50 values are calculated using the XLfit software package (version 2.0.5).

[2] = tested on: phospho-ERK in HCT116 human colorectal carcinoma; assay: Phospho-ERK cell-based assay, HCT116; conditions: HCT-116, HCT116, 2 h or 24 h exposure, p-ERK signal normalised to PI, read-out: EC50 in the phospho-ERK cell-based assay, HCT116 cell line
Method: (§6) Compounds are tested in a cell-based phospho-ERK ELISA using the following cell lines:
(§7) HCT116 human colorectal carcinoma (ATCC)
as §3
(§8) Cells are seeded in 96-well plates at 2,000 cells/well and after 24 h they are exposed to different concentrations of compounds in 0.83% DMSO. Cells are grown for a further 2 h or 24 h, fixed with formaldehyde (2% final) and permeabilised with methanol. Following blocking with TBST-3% BSA, fixed cells are incubated with primary antibody (anti-phospho ERK from rabbit) over-night at 4° C. Cells are incubated with Propidium Iodide (DNA fluorescent dye) and detection of cellular p-ERK is performed using an anti-rabbit secondary antibody conjugated to the fluorescent Alexa Fluor 488 dye (Molecular probes). The fluorescence is analysed using the Acumen Explorer (TTP Labtech), a laser-scanning microplate cytometer, and the Alexa Fluor 488 signal is normalised to the PI signal (proportional to cell number).
(§9) The EC50 is defined as the concentration at which a given compound achieves a signal half way between the baseline and the maximum response. EC50 values are calculated using the XLfit software package (version 2.0.5).

[3] = tested on: phospho-ERK in A375 human malignant melanoma; assay: Phospho-ERK cell-based assay, A375; conditions: A-375, A375, 2 h or 24 h exposure, p-ERK signal normalised to PI, read-out: EC50 in the phospho-ERK cell-based assay, A375 cell line
Method: as §6, §2, §3, §8, §9

[4] = tested on: HCT116 human colorectal carcinoma; assay: Cell proliferation assay, HCT116; format: cell-based; conditions: HCT-116, HCT116, 72h exposure, CellTiter-Glo, read-out: EC50 in the cell proliferation assay, HCT116 cell line
Method: as §1, §7, §3, §4, §5

Row | EC50 [1] [nM] | EC50 [4] [nM] | SMILES | EC50 [2] [nM] | EC50 [3] [nM]
1 | < 100 | < 500 | CSc1ccc(Nc2c(C(=O)NOC[C@H](O)CO)ccc3cnsc23)c(F)c1 [Example 22, 7-(2-Fluoro-4-methylsulfanyl-phenylamino)-benzo[d]isothiazole-6-carboxylic acid ((R)-2,3-dihydroxy-propoxy)-amide] | < 100 | < 100
2 | < 100 | < 500 | C[C@H](O)CONC(=O)c1cnc2[nH]ncc2c1Nc1ccc(I)cc1F [Example 7, 4-(2-Fluoro-4-iodophenylamino)-1H-pyrazolo[3,4-b]pyridine 5-carboxylic acid ((S)-2-hydroxypropoxy)-amide] | < 100 | < 100
3 | < 100 | – | O=C(NOC[C@H](O)CO)c1ccc2cnsc2c1Nc1ccc(C2CC2)cc1F [Example 23, 7-(4-Cyclopropyl-2-fluoro-phenylamino)-benzo[d]isothiazole-6-carboxylic acid ((R)-2,3-dihydroxy-propoxy)-amide] | – | < 100
4 | < 100 | < 500 | O=C(NOCCO)c1ccc2cnsc2c1Nc1ccc(Br)cc1F [Example 25, 7-(4-Bromo-2-fluoro-phenylamino)-benzo[d]isothiazole-6-carboxylic acid (2-hydroxy-ethoxy)-amide] | < 100 | < 100
5 | < 100 | < 500 | O=C(NOCCO)c1ccc2sncc2c1Nc1ccc(I)cc1F [Example 12, 4-(2-Fluoro-4-iodo-phenylamino)-benzo[d]isothiazole-5-carboxylic acid (2-hydroxy-ethoxy)-amide] | < 100 | < 100
6 | – | < 500 | CSc1ccc(Nc2c(C(=O)NOCCO)ccc3[nH]ncc23)c(F)c1 [Example 13, 4-(2-Fluoro-4-methylsulfanyl-phenylamino)-1H-indazole-5-carboxylic acid (2-hydroxy-ethoxy)-amide] | < 100 | –
7 | – | – | O=C(NOCCO)c1ccc2cnsc2c1Nc1ccc(I)cc1F [Example 26, 7-(2-Fluoro-4-iodo-phenylamino)-benzo[d]isothiazole-6-carboxylic acid (2-hydroxy-ethoxy)-amide] | < 100 | < 100
8 | < 100 | < 500 | CONC(=O)c1ccc2[nH]ncc2c1Nc1ccc(I)cc1F [Example 17, 4-(2-Fluoro-4-iodo-phenylamino)-1H-indazole-5-carboxylic acid methoxy-amide] | < 100 | < 100
9 | < 100 | < 500 | O=C(NOC[C@H](O)CO)c1ccc2cnsc2c1Nc1ccc(Br)cc1F [Example 24, 7-(4-Bromo-2-fluoro-phenylamino)-benzo[d]isothiazole-6-carboxylic acid ((R)-2,3-dihydroxy-propoxy)-amide] | < 100 | < 100
10 | < 100 | < 500 | C[C@H](O)CONC(=O)c1ccc2[nH]ncc2c1Nc1ccc(Br)cc1F [Example 11, 4-(4-Bromo-2-fluoro-phenylamino)-1H-indazole-5-carboxylic acid ((S)-2-hydroxy-propoxy)-amide] | < 100 | < 100
11 | – | – | O=C(NOCC1CC1)c1ccc2[nH]ncc2c1Nc1ccc(I)cc1F [Example 16, 4-(2-Fluoro-4-iodo-phenylamino)-1H-indazole-5-carboxylic acid cyclopropylmethoxy-amide] | < 100 | –
12 | < 100 | < 500 | C[C@H](O)CONC(=O)c1ccc2sncc2c1Nc1ccc(I)cc1F [Example 20, 4-(2-Fluoro-4-iodo-phenylamino)-benzo[d]isothiazole-5-carboxylic acid ((S)-2-hydroxy-propoxy)-amide] | < 100 | < 100
13 | < 100 | < 500 | O=C(NOCCO)c1ccc2[nH]ncc2c1Nc1ccc(Br)cc1F [Example 10, 4-(4-Bromo-2-fluoro-phenylamino)-1H-indazole-5-carboxylic acid (2-hydroxy-ethoxy)-amide] | < 100 | < 100
14 | < 100 | < 500 | O=C(NOC[C@H](O)CO)c1ccc2cnsc2c1Nc1ccc(I)cc1F [Example 27, 7-(2-Fluoro-4-iodo-phenylamino)-benzo[d]isothiazole-6-carboxylic acid ((R)-2,3-dihydroxy-propoxy)amide] | < 100 | < 100
15 | < 100 | < 500 | O=C(NOC[C@H](O)CO)c1ccc2[nH]ncc2c1Nc1ccc(I)cc1F [Example 9, 4-(2-Fluoro-4-iodophenylamino)-1H-indazole-5-carboxylic acid ((R)-2,3-dihydroxy-propoxy)-amide] | < 100 | < 100
16 | < 100 | < 500 | CCONC(=O)c1ccc2[nH]ncc2c1Nc1ccc(I)cc1F [Example 14, 4-(2-Fluoro-4-iodo-phenylamino)-1H-indazole-5-carboxylic acid ethoxy-amide] | < 100 | < 100
17 | < 100 | < 500 | O=C(NOCCO)c1ccc2[nH]ncc2c1Nc1ccc(I)cc1F [Example 5, 4-(2-Fluoro-4-iodo-phenylamino)-1H-indazole-5-carboxylic acid (2-hydroxy-ethoxy)-amide] | < 100 | –
18 | < 100 | < 500 | O=C(NOC[C@H](O)CO)c1ccc2sncc2c1Nc1ccc(I)cc1F [Example 21, 4-(2-Fluoro-4-iodo-phenylamino)-benzo[d]isothiazole-5-carboxylic acid ((R)-2,3-dihydroxy-propoxy)-amide] | < 100 | < 100
19 | < 100 | < 600 | CC(C)(CO)ONC(=O)c1cnc2[nH]ncc2c1Nc1ccc(I)cc1F [Example 8, 4-(2-Fluoro-4-iodophenylamino)-1H-pyrazolo[3,4-b]pyridine-5-carboxylic acid (2-hydroxy-1,1-dimethylethoxy)-amide] | < 100 | < 100
20 | < 100 | < 500 | O=C(NOCCO)c1cnc2[nH]ncc2c1Nc1ccc(I)cc1F [Example 6, 4-(2-Fluoro-4-iodophenylamino)-1H-pyrazolo[3,4-b]pyridine 5-carboxylic acid (2-hydroxyethoxy)-amide] | < 100 | < 100
